# Several values for one entry are separate records, joined by “and”; a condition that tells them apart may be missing. Identical values can stand only once. Entries after “also recorded” stand apart in the source; their conditions may differ. Like-named read-outs stand apart in the source and are kept apart here. Marks after values point to notes of the source that are not given here.
# How the values were obtained:
# CB2 receptor = CB2 receptor (Homo sapiens, UniProt P34972); conditions: cited from earlier work
# normal (non-CFA) rats = test: Open field exploratory behavioral activity; format: in vivo, Sprague-Dawley rats
# Protocol: Exploratory behavioral activity of the rats was monitored using the Flexfield Animal Activity System (San Diego Instruments; San Diego, Calif.) with a Photobeam Activity System software coupled to a computer according to previously published methods by Zhang et al., (2004) Pharmacol Biochem Behav 77: 145-153. Briefly, six main parameters were recorded: rearing events and rearing time, active time, and resting time, total activity (i.e. number of photobeams disturbed in the x-y-z planes while the rat was moving around in the box or involved in stationary movement such as grooming), and distance traveled. Activity testing was conducted in an isolated, temperature controlled area at similar times daily in order to provide consistent results.
# (§1) Baseline parameters (body weight, knee joint temperature, and knee joint circumference) were obtained before the knee injection of rats with CFA. PWL test and exploratory activity testing were also conducted prior to CFA injection. Rats were anesthetized with a short term anesthetic and the left knee joint, cavity was injected with CFA for induction of mono-arthritis. On day 3, the back of each animal was shaved. […] Rats received daily treatments for four consecutive days of either vehicle gel, or CBD gel. Gel was applied to the skin in a templated region on the dorsal surface of the rat and rubbed into the skin for 30 sec to ensure complete coverage. The nitrile template was used to ensure specific area reproducibility. The PWL test was conducted 4 h after gel application. Exploratory activity was monitored prior to initial gel application and on the third day post gel application (after 6 h). On the final day of gel application after the body and knee joint parameters were obtained and PWL test was conducted, rats were cuthanized by pentobarbital overdose. Blood samples were obtained for CBD plasma quantification, and tissues (knee joints, dorsal root ganglia, spinal cord, brain) were collected after perfusion.
# [1] = test system: CFA intraplantar injection; conditions: rats, 20 mg/kg oral, 7 consecutive days; cited from earlier work
# [2] = test system: CFA-induced mono-arthritis, secondary thermal hyperalgesia; test: Secondary thermal hyperalgesia, paw withdrawal latency (PWL) test; format: in vivo, Sprague-Dawley rats; conditions: for Paw withdrawal latency (PWL), own baseline score: baseline before CFA and CBD
# Protocol: Secondary thermal hyperalgesia was assessed with the paw withdrawal latency (PWL) test (Hargreaves et al. (1988) Pain 32: 77-88). PWLs were measured in response to a radiant heat source shone on one hind paw of the animals from beneath a glass top table. A shortened PWL response in animals with knee joint inflammation was indicative of secondary thermal hyperalgesia. Animals were placed in separate plastic cubicles (4×4×10 in) on a glass top table (2 mm thickness of glass) and allowed to adapt to their new environment for 20-30 min before testing. A small movable metal box that focused a high-intensity light beam through an aperture (0.5 cm×0.5 cm) was attached to an on/off switch and a digital timer. The light beam was applied to the plantar surface of the hind paw through the glass until the rat lifted its paw. At that time, the light is switched off and the number of seconds on the digital timer recorded as the PWL (sec). The maximal cut off time for the paw-withdrawal reflex was set to 15 sec (55° C.). […] Both hind paws were tested independently for 5 trials per side with 5-minute intervals between trials. A mean of the 5 trials was calculated for each animal. The PWL tests were performed before knee joint injection as a baseline and 5 times after the CFA injection beginning on day 3 (days 3-7). The examiner was blind from the treatment group of animals.
# as §1
# Half of the treated rats were injected with the CFA in the knee joint. Within each group of rats, half received vehicle gel without CBD and the other half received the gel CBD. Four different doses were tested in the rats, 0.6 mg/d, 3.1 mg/d, 6.2 mg/d, or 62.3 mg/d. […] A two-fold lower dose and a ten-fold lower/higher dose (3.1 mg/d, 0.6 mg/d, and 62.3 mg/d) were also investigated. Area of application, amount of gel, and/or concentration of gel was adjusted to achieve the desired doses.
# [3] = test system: CFA-induced knee joint inflammation; test: Knee joint circumference in CFA mono-arthritic rats; format: in vivo, Sprague-Dawley rats
# [4] = test system: collagen-induced arthritis; conditions: mice, cited from earlier work
# [5] = test system: carrageenan-induced paw edema; conditions: cited from earlier work
# [6] = test system: CFA-induced knee joint inflammation; test: Knee joint temperature in CFA mono-arthritic rats; format: in vivo, Sprague-Dawley rats
# [7] = test system: CFA-induced mono-arthritis pain; test: Pain-related posture (spontaneous pain rating score 0-5); format: in vivo, Sprague-Dawley rats; conditions: after CFA, before CBD gel
# Excerpt: The abnormal posture of the affected hind limb of each animal was assigned a single score using a subjective pain-related behavioral scale (spontaneous pain rating score 0-5), i.e. 0—normal; 1—curling of the toes, 2—eversion of the paw; 3—partial weight bearing; 4—non-weight bearing and guarding; and 5—avoidance of any contact with the hindlimb (Sluka et al. (1994) Neuroreport 5:109-112).
# as §1, with “The PWL test was conducted 4 h after gel application.” left out, “On the final day of gel application after the body and knee joint parameters were obtained and PWL test was conducted, rats were cuthanized by pentobarbital overdose.” left out, “perfusion. […]” for “perfusion.”
# [8] = Plasma CBD concentration after topical gel application (LC/MS); format: in vivo, Sprague-Dawley rats; conditions: rats
# Protocol: as §1
# 50 μL aliquot of plasma collected from cannabidiol dosed rats was added to a siliconized microcentrifuge tube containing 500 μL of 1:1 ACN:ethyl acetate. The plasma/ACN:ethyl acetate sample was vortexed for 30 sec and centrifuged at 10,000×g for 20 min. The supernatant was removed and placed into a clean silanized culture tube and evaporated under nitrogen in a 37° C. water bath. The dried sample was reconstituted with 100 μL of ACN and vortexed for 30 sec, then sonicated for 5 min. […] Standards were prepared by spiking blank plasma samples with respective standard concentrations and extracting the standards similarly to the collected plasma samples.
# The LC/MS system used to analyze samples was comprised of a Waters Alliance 2695 pump and autosampler, a Micromass™ ZQ detector, and 996 photodiode array detector with MassLynx™ software (Waters Corp., Milford, Mass.). A Symmetry™ C18 column (150×2.1 mm, 5 μm) with a Sentry Symmetry™ guard column (10×2.1 mm, 3.5 μm) was used with the LC/MS system. The ZQ detector was used with an electrospray ionization (ESI) probe set for single ion monitoring (SIM) for cannabidiol quantification. Analysis was performed in negative mode for m/z 313 [CBD-H]^− (dwell time: 30 sec). Capillary and cone voltage were set at […] and 40 V, respectively. Source block and desolvation temperatures were set at 120° C. and 250° C., respectively. Nitrogen produced from the Nitroflow Lab (Parker Hannifin Corp; Cleveland, Ohio) was used as nebulization and drying gas flow rates of 50 and 450 L/h, respectively. […]
# [9] = in vivo; cited from earlier work
# [10] = 0.6 mg/d group, after CFA, before CBD gel
# [11] = 3.1 mg/d group, after CFA, before CBD gel
# [12] = 3.1 mg/d transdermal CBD gel, Post-CBD, day 4
# [13] = 6.2 mg/d group, after CFA, before CBD gel
# [14] = 62.3 mg/d group, after CFA, before CBD gel
# [15] = CFA + CBD group, baseline before CFA and before CBD
# Chain of CB2 receptor (P34972 whole entry): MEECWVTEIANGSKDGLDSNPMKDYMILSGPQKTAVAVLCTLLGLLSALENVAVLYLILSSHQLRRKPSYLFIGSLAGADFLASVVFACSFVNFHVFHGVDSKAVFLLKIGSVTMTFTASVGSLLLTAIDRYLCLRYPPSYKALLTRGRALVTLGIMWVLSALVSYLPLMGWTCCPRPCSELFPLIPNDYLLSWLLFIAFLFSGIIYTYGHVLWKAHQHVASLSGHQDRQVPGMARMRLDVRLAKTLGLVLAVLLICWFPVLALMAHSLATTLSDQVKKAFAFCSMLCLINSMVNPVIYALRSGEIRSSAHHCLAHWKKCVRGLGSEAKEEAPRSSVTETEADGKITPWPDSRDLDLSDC
smiles,measurement,setting,value
"C=C(C)C1CCC(C)=CC1c1c(O)cc(CCCCC)cc1O (stereo not drawn) [CBD, 2-[3-methyl-6-(1-methylethenyl)-2-cyclohexen-1-yl]-5-pentyl-1,3-benzenedi-ol]",Binding affinity for CB2 receptor,CB2 receptor,little binding affinity
same,Distance traveled,"normal (non-CFA) rats; 0.6 mg/d CBD gel, post-dose, p<0.05 vs pre-dose",1757.1±299.2 cm
same,Distance traveled,"normal (non-CFA) rats; 0.6 mg/d group, pre-dose",2245.5±367.4 cm
same,Rearing events,"normal (non-CFA) rats; 3.1 mg/d group, pre-dose",284.0±31.1
same,Rearing time,"normal (non-CFA) rats; 3.1 mg/d group, pre-dose",189.1±20.7
same,"Exploratory activity, six parameters (rearing events, rearing time, total beams broken, distance traveled, active time, resting time)","normal (non-CFA) rats; among dose groups and pre- vs post-dose, p>0.05, exception distance traveled at 0.6 mg/d",No significant (p>0.05) differences
same,Decrease in thermal and mechanical withdrawal latency,[1],50%
same,"Paw withdrawal latency (PWL), own baseline score",[2]; 6.2 mg/d group,10.9 ± 0.3 s
same,"Paw withdrawal latency (PWL), own baseline score",[2]; 62.3 mg/d group,9.3 ± 0.3 s
same,Paw withdrawal latency (PWL),"[2]; CFA rats, 0.6 mg/d CBD gel, day 2 of application, 4 h after application",7.8 ± 0.5 s
same,Improvement of PWL scores,"[2]; CFA rats, 0.6 mg/d and 3.1 mg/d CBD, day 4",did not have improved PWL scores
same,Paw withdrawal latency (PWL),"[2]; CFA rats, 3.1 mg/d CBD gel, day 2 of application",7.6 ± 0.8 s
same,Paw withdrawal latency (PWL),"[2]; CFA rats, 6.2 mg/d CBD gel, day 2 of application, p<0.05 vs vehicle gel",9.2 ± 0.7 s
same,Paw withdrawal latency (PWL),"[2]; CFA rats, 6.2 mg/d CBD gel, day 4",9.2 ± 0.3 s
same,Change in PWL vs CFA rats receiving vehicle gel,"[2]; CFA rats, 6.2 mg/d, 4 h (d 1) post CBD dosing, p<0.05",improvement
same,Paw withdrawal latency (PWL),"[2]; CFA rats, 62.3 mg/d CBD gel, day 2 of application, p<0.05 vs vehicle gel",9.1 ± 0.2 s
same,Paw withdrawal latency (PWL),"[2]; CFA rats, 62.3 mg/d CBD gel, day 4",9.3 ± 0.2 s
same,Paw withdrawal latency (PWL),"[2]; normal controls, 6.2 mg/d CBD gel, day 4",10.6 ± 0.3 s
same,Paw withdrawal latency (PWL),"[2]; normal rats, 0.6 mg/d CBD gel, day 2",9.9 ± 0.2 s
same,Paw withdrawal latency (PWL),"[2]; normal rats, 3.1 mg/d CBD gel, day 2",9.9 ± 0.3 s
same,Paw withdrawal latency (PWL),"[2]; normal rats, 6.2 mg/d CBD gel, day 2",10.1 ± 0.9 s
same,Effect on PWL in normal rats,"[2]; normal rats, any CBD dose (0.6, 3.1, 6.2 mg/d)",not affected; also recorded: no effect
same,Knee joint circumference [mean ± SD],[3]; [10],7.5 ± 0.3^b cm
same,Knee joint circumference [mean ± SD],"[3]; 0.6 mg/d transdermal CBD gel, Post-CBD, four consecutive days (day 4)",7.0 ± 0.3^b cm
same,Knee joint circumference [mean ± SD],[3]; [11],7.4 ± 0.4^b cm
same,Knee joint circumference [mean ± SD],[3]; [12],7.1 ± 0.3^b cm
same,Knee joint circumference [mean ± SD],[3]; [13],7.2 ± 0.3^b cm
same,Knee joint circumference [mean ± SD],"[3]; 6.2 mg/d transdermal CBD gel, Post-CBD, day 4, p<0.05 vs vehicle gel",6.6±0.2 cm and 6.6 ± 0.2^b* cm
same,Knee joint circumference [mean ± SD],[3]; [14],7.2 ± 0.0^a cm
same,Knee joint circumference [mean ± SD],"[3]; 62.3 mg/d transdermal CBD gel, Post-CBD, day 4, p<0.05 vs vehicle gel",6.6±0.1 cm and 6.6 ± 0.1^a* cm
same,Knee joint circumference [mean ± SD],[3]; [15],5.7±0.2 cm and 5.7 ± 0.2^c cm
same,Optimal treatment dose for knee inflammation,"[3]; transdermal gel, no further improvement with 62.3 mg/d",6.2 mg/day
same,Therapeutic action on established CIA,[4]; administered systemically (ip and oral),beneficial therapeutic action
same,Optimal dose for arthritis suppression,"[4]; i.p. (2.5, 5, 10, 20 mg/kg tested)",5 mg/kg
same,Optimal dose for arthritis suppression,"[4]; oral (10, 25, 50 mg/kg tested)",25 mg/kg
same,Effect on hyperalgesia (PWL),"[5]; mice, 5 and 7.5 mg/kg oral, by 6 h",eliminated hyperalgesia
same,Effect on hyperalgesia (PWL),"[5]; mice, 10, 20 and 40 mg/kg oral, 3 h post carrageenan",elimination of hyperalgesia
same,Knee joint temperature [mean ± SD],[6]; [10],31.7 ± 1.7^b ° C.
same,Knee joint temperature [mean ± SD],"[6]; 0.6 mg/d transdermal CBD gel, Post-CBD, day 4",31.2 ± 0.7^b ° C.
same,Knee joint temperature [mean ± SD],[6]; [11],30.8 ± 0.9^b ° C.
same,Knee joint temperature [mean ± SD],[6]; [12],30.6 ± 0.6^b ° C.
same,Knee joint temperature [mean ± SD],[6]; [13],32.1 ± 1.8^b ° C.
same,Knee joint temperature [mean ± SD],"[6]; 6.2 mg/d transdermal CBD gel, Post-CBD, day 4",31.7 ± 2.1^b ° C.
same,Knee joint temperature [mean ± SD],[6]; [14],34.1 ± 0.8^a ° C.
same,Knee joint temperature [mean ± SD],"[6]; 62.3 mg/d transdermal CBD gel, Post-CBD, day 4",30.2 ± 0.9^a ° C.
same,Difference in knee joint temperature among the treatment groups,"[6]; CBD gel doses vs vehicle gel, p>0.05",No knee joint temperature differences; also recorded: no significant differences
same,Knee joint temperature [mean ± SD],[6]; [15],33.4 ± 0.2^a ° C.
same,Spontaneous pain rating scores [mean ± SD],[7]; 0.6 mg/d group,4.0 ± 0.0^b
same,Spontaneous pain rating scores [mean ± SD],[7]; 3.1 mg/d group,4.0 ± 0.0^b
same,Plasma CBD concentration,"[8]; topical gel 0.6 mg/d, four consecutive days",3.8 ± 1.4 ng/mL
same,Plasma CBD concentration,[8]; topical gel 3.1 mg/d,17.5 ± 4.4 ng/mL
same,Plasma CBD concentration,[8]; topical gel 6.2 mg/d,33.3 ± 9.7 ng/mL
same,Plasma CBD concentration,"[8]; topical gel 62.3 mg/d (10% w/w gel), not in linear profile","1,629.9±379.0 ng/mL"
"CCCCCc1cc(O)c2c(c1)OC(C)(C)[C@@H]1CCC(C)=C[C@@H]21 [THC, Δ^9-tetrahydrocannabinol]",Side effects caused,[9],hypothermia and hypomobility

# — patent US20120202892A1, “Cannabinoid-Containing Compositions and Methods for Their Use” (University of Kentucky Research Foundation, priority 2008, published 2012)
